The record followed here is patent US12679849B2, “Macrocyclic compounds as STING agonists” (LUPIN LIMITED, priority 2019, dated 2026).

The target of the experiment is T1, Human STING (Homo sapiens, UniProt Q86WV6, G230A/H232R/R293Q/R71H).
T1 construct: using human THP1-Blue™ ISG SEAP based reporter cell line (Invivogen); host or cells: THP1-Blue ISG (human monocytic THP-1 derived SEAP reporter line)
The experiment is described as follows: Stimulation of human STING signalling in THP1-Blue ISG SEAP reporter cell line. The class given is cell-based. The conditions noted are these: THP1-Blue ISG cells, 18-20 hours incubation. As for the experimental part: Stimulation of Human STING Signalling in THP1 Cell Line
Compounds were tested for their STING activation potential using human THP1-Blue™ ISG SEAP based reporter cell line (Invivogen). Briefly, THP1-Blue ISG cells (100,000 cells/well) in 96 well plate were treated with varying concentrations of test and reference compounds and incubated at 37° C. with 5% CO2 for 18-20 hours. The control untreated cells were also set up. Post incubation, the cell supernatant was tested for SEAP (Secreted Embryonic Alkaline Phosphatase) activity using the QuantiBlue™ substrate reagent (Invivogen). The formation of blue coloured product was quantified by measuring absorbance at wavelength of 620 nm using PheraStar/Tecan reader. The average of duplicate readouts for each data point was plotted in GraphPad prism 6 against the concentration of test or reference compound to calculate EC50 value. The fold of SEAP induction or increase in luminescence at different data points was estimated against the un-stimulated cell control set.

T1 sequence (Q86WV6 whole entry R71H/G230A/H232R/R293Q): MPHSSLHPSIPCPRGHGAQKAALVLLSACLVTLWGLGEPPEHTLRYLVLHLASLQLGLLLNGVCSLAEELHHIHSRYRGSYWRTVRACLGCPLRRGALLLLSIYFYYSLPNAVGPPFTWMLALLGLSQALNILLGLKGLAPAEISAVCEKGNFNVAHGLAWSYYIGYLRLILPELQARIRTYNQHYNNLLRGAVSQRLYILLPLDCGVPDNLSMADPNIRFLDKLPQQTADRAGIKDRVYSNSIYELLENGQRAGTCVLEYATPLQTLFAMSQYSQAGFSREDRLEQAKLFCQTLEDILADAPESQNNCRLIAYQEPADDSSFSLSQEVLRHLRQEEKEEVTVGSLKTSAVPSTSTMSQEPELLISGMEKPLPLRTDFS

Usually EC50 stands for the concentration needed to bring the measured effect to its halfway point. Low readings indicate greater potency, high ones weaker potency. In the case of `CCn1nc(C)cc1C(=O)Nc1nc2cc(C(N)=O)cc3c2n1C/C=C/Cn1c(NC(=O)c2cc(C)nn2CC)nc2cc(C(N)=O)cc(c21)OCC(N1CCC(C#N)C1)CO3` (stereo not shown) [Compound 26, (E)-8-(3-cyanopyrrolidin-1-yl)-1,15-bis(1-ethyl-3-methyl-1H-pyrazole-5-carboxamido)-8,9,16,19-tetrahydro-7H-6,10-dioxa-2,14,15a,19a-tetraazacyclopentadeca[3,2,1-cd:8,9,10-c′d′]diindene-4,12-dicarboxamide], the EC50 lay within 1 to 10 nM. In the case of `CCn1nc(C)cc1C(=O)Nc1nc2cc(C(N)=O)cc3c2n1C/C=C/Cn1c(NC(=O)c2cc(C)nn2CC)nc2cc(C(N)=O)cc(c21)OCC(c1ccccn1)CO3` [Compound 36, (E)-1,15-bis(1-ethyl-3-methyl-1H-pyrazole-5-carboxamido)-8-(pyridin-2-yl)-8,9,16,19-tetrahydro-7H-6,10-dioxa-2,14,15a,19a-tetraazacyclopentadeca[3,2,1-cd:8,9,10-c′d′]diindene-4,12-dicarboxamidexamide] it was 11 to 100 nM; in that of `CCn1nc(C)cc1C(=O)Nc1nc2cc(C(N)=O)cc3c2n1C/C=C/Cn1c(NC(=O)c2cc(C)nn2CC)nc2cc(C(N)=O)cc(c21)OCC(N1CC[C@H](OC)C1)CO3` [Compound 6, (S,E)-1,15-bis(1-ethyl-3-methyl-1H-pyrazole-5-carboxamido)-8-(3-methoxypyrrolidin-1-yl)-8,9,16,19-tetrahydro-7H-6,10-dioxa-2,14,15a,19a-tetraazacyclopentadeca[3,2,1-cd:8,9,10-c′d′]diindene-4,12-dicarboxamide], 1 to 10 nM. As for `CCn1nc(C)cc1C(=O)Nc1nc2cc(C(N)=O)cc3c2n1C/C=C/Cn1c(NC(=O)c2cc(C)nn2CC)nc2cc(C(N)=O)cc(c21)OCC(CCN1CCOCC1)CO3` [Compound 13, (E)-1,15-bis(1-ethyl-3-methyl-1H-pyrazole-5-carboxamido)-8-(2-morpholinoethyl)-8,9,16,19-tetrahydro-7H-6,10-dioxa-2,14,15a,19a-tetraazacyclopentadeca[3,2,1-cd:8,9,10-c′d′]diindene-4,12-dicarboxamide], the EC50 lay in the range of 11 to 100 nM.

The compound `CCn1nc(C)cc1C(=O)Nc1nc2cc(C(N)=O)cc3c2n1C/C=C/Cn1c(NC(=O)c2cc(C)nn2CC)nc2cc(C(N)=O)cc(c21)OCC(N1CC[C@@H](O)C1)CO3` [Compound 12, (R,E)-1,15-bis(1-ethyl-3-methyl-1H-pyrazole-5-carboxamido)-8-(3-hydroxypyrrolidin-1-yl)-8,9,16,19-tetrahydro-7H-6,10-dioxa-2,14,15a,19a-tetraazacyclopentadeca[3,2,1-cd:8,9,10-c′d′]diindene-4,12-dicarboxamide] gave a concentration for a half-maximal effect (EC50) of 1 to 10 nM. In the case of `CCn1nc(C)cc1C(=O)Nc1nc2cc(C(N)=O)cc3c2n1C/C=C/Cn1c(NC(=O)c2cc(C)nn2CC)nc2cc(C(N)=O)cc(c21)OCC(CN1CCOCC1)CO3` [Compound 16, (E)-1,15-bis(1-ethyl-3-methyl-1H-pyrazole-5-carboxamido)-8-(morpholinomethyl)-8,9,16,19-tetrahydro-7H-6,10-dioxa-2,14,15a,19a-tetraazacyclopentadeca[3,2,1-cd:8,9,10-c′d′]diindene-4,12-dicarboxamide] it was 11 to 100 nM. In turn, `CCn1nc(C)cc1C(=O)Nc1nc2cc(C(N)=O)cc3c2n1C/C=C/Cn1c(NC(=O)c2cc(C)nn2CC)nc2cc(C(N)=O)cc(c21)OCC(N1C[C@@H](C)O[C@@H](C)C1)CO3` [Compound 5, (E)-8-((2S,6R)-2,6-dimethylmorpholino)-1,15-bis(1-ethyl-3-methyl-1H-pyrazole-5-carboxamido)-8,9,16,19-tetrahydro-7H-6,10-dioxa-2,14,15a,19a-tetraazacyclopentadeca[3,2,1-cd:8,9,10-c′d′]diindene-4,12-dicarboxamide] yielded an EC50 of 1 to 10 nM. The compound `CCn1nc(C)cc1C(=O)Nc1nc2cc(C(N)=O)cc3c2n1C/C=C/Cn1c(NC(=O)c2cc(C)nn2CC)nc2cc(C(N)=O)cc(c21)OCC(N1CC[C@@H](OC)C1)CO3` [Compound 35, (R,E)-1,15-bis(1-ethyl-3-methyl-1H-pyrazole-5-carboxamido)-8-(3-methoxypyrrolidin-1-yl)-8,9,16,19-tetrahydro-7H-6,10-dioxa-2,14,15a,19a-tetraazacyclopentadeca[3,2,1-cd:8,9,10-c′d′]diindene-4,12-dicarboxamide] came in with an EC50 of 1 to 10 nM. In turn, `CCn1nc(C)cc1C(=O)Nc1nc2cc(C(N)=O)cc3c2n1C/C=C/Cn1c(NC(=O)c2cc(C)nn2CCF)nc2cc(C(N)=O)cc(c21)OCC(N1CCOCC1)CO3` (stereo not shown) [Compound 17, (E)-15-(1-ethyl-3-methyl-1H-pyrazole-5-carboxamido)-1-(1-(2-fluoroethyl)-3-methyl-1H-pyrazole-5-carboxamido)-8-morpholino-8,9,16,19-tetrahydro-7H-6,10-dioxa-2,14,15a,19a-tetraazacyclopentadeca[3,2,1-cd:8,9,10-c′d′]diindene-4,12-dicarboxamide] showed an EC50 of 11 to 100 nM.

In the case of `CCn1nc(C)cc1C(=O)Nc1nc2cc(C(N)=O)cc3c2n1C/C=C/Cn1c(NC(=O)c2cc(C)nn2CC)nc2cc(C(N)=O)cc(c21)OCC(C1CCN(C)CC1)CO3` [Compound 9, (E)-1,15-bis(1-ethyl-3-methyl-1H-pyrazole-5-carboxamido)-8-(1-methylpiperidin-4-yl)-8,9,16,19-tetrahydro-7H-6,10-dioxa-2,14,15a,19a-tetraazacyclopentadeca[3,2,1-cd:8,9,10-c′d′]diindene-4,12-dicarboxamide], the EC50 lay in the range of 11 to 100 nM. In the case of `CCn1nc(C)cc1C(=O)Nc1nc2cc(C(N)=O)cc3c2n1C/C=C/Cn1c(NC(=O)c2cc(C)nn2CC)nc2cc(C(N)=O)cc(c21)OCC(n1ccnc1)CO3` [Compound 19, (E)-1,15-bis(1-ethyl-3-methyl-1H-pyrazole-5-carboxamido)-8-(1H-imidazol-1-yl)-8,9,16,19-tetrahydro-7H-6,10-dioxa-2,14,15a,19a-tetraazacyclopentadeca[3,2,1-cd:8,9,10-c′d′]diindene-4,12-dicarboxamide] it was 1 to 10 nM. Compound `CCn1nc(C)cc1C(=O)Nc1nc2cc(C(N)=O)cc3c2n1C/C=C/Cn1c(NC(=O)c2cc(C)nn2CC)nc2cc(C(N)=O)cc(c21)OCC(N1CC[C@H](O)C1)CO3` [Compound 11, (S,E)-1,15-bis(1-ethyl-3-methyl-1H-pyrazole-5-carboxamido)-8-(3-hydroxypyrrolidin-1-yl)-8,9,16,19-tetrahydro-7H-6,10-dioxa-2,14,15a,19a-tetraazacyclopentadeca[3,2,1-cd:8,9,10-c′d′]diindene-4,12-dicarboxamide] yielded an EC50 of 1 to 10 nM. In turn, `CCn1nc(C)cc1C(=O)Nc1nc2cc(C(N)=O)cc3c2n1C/C=C/Cn1c(NC(=O)c2cc(C)nn2CC)nc2cc(C(N)=O)cc(c21)OCC(N1CCC(F)(F)CC1)CO3` [Compound 4, (E)-8-(4,4-difluoropiperidin-1-yl)-1,15-bis(1-ethyl-3-methyl-1H-pyrazole-5-carboxamido)-8,9,16,19-tetrahydro-7H-6,10-dioxa-2,14,15a,19a-tetraazacyclopentadeca[3,2,1-cd:8,9,10-c′d′]diindene-4,12-dicarboxamide] showed an EC50 of 11 to 100 nM. Compound `CCn1nc(C)cc1C(=O)Nc1nc2cc(C(N)=O)cc3c2n1C/C=C/Cn1c(NC(=O)c2cc(C)nn2CC)nc2cc(C(N)=O)cc(c21)OCC(N1CCOCC1)CO3` [Compound 3, (E)-1,15-bis(1-ethyl-3-methyl-1H-pyrazole-5-carboxamido)-8-morpholino-8,9,16,19-tetrahydro-7H-6,10-dioxa-2,14,15a,19a-tetraazacyclopentadeca[3,2,1-cd:8,9,10-c′d′]diindene-4,12-dicarboxamide] returned an EC50 of 1 to 10 nM. In the case of `CCn1nc(C)cc1C(=O)Nc1nc2cc(C(N)=O)cc3c2n1C/C=C/Cn1c(NC(=O)c2cc(C)nn2CC)nc2cc(C(N)=O)cc(c21)O[C@H]1CN[C@@H](CO3)C1` [Compound 20, (33R,35R,E)-12,62-bis(1-ethyl-3-methyl-1H-pyrazole-5-carboxamido)-11H,61H-2,5-dioxa-1,6(7,1)-dibenzo[d]imidazola-3(3,5)-pyrrolidinacyclodecaphan-8-ene-15,65-dicarboxamide] it was 11 to 100 nM; in that of `CCn1nc(C)cc1C(=O)Nc1nc2cc(C(N)=O)cc3c2n1C/C=C/Cn1c(NC(=O)c2cc(C)nn2CC)nc2cc(C(N)=O)cc(c21)OCC(N1CCC(O)CC1)CO3` [Compound 22, (E)-1,15-bis(1-ethyl-3-methyl-1H-pyrazole-5-carboxamido)-8-(4-hydroxypiperidin-1-yl)-8,9,16,19-tetrahydro-7H-6,10-dioxa-2,14,15a,19a-tetraazacyclopentadeca[3,2,1-cd:8,9,10-c′d′]diindene-4,12-dicarboxamide], 11 to 100 nM.
